Assay results reported in patent US20070149481A1, “N,n-bridged, nitrogen-substituted carbacyclic indolocarbazoles as protein kinase inhibitors” (priority 2002, published 2007).

Experiments:
Format in all cases: biochemical
Details in all cases: 10 μM compound
[1] = biological target: T1, PKA (catalytic subunit, bovine heart) (Bos taurus, UniProt P00517); assay: Protein Kinase A inhibition assay (PKA)
T1 construct: PKA (catalytic subunit, bovine heart, Calbiochem 539486); purchased Calbiochem 539486; host or cells: bovine heart (tissue-derived)
Procedure: (§1) The ERK2 kinase activity assay utilizes a radioactivity-based format in a 96-well PCR plate with radioactive readout. The ERK2 activity was assayed in a 25 μL assay mixture containing 25 mM HEPES (pH 7.0), 250 μM ATP, 1 mM MgCl2, 1 mM DTT, 2% DMSO, 150 ng/mL Myelin Basic Protein (MBP, Sigma M-1891), and 13.6 ng/mL His tagged ERK2 (specific activity=38.1 nmol/min*mg). Compounds were screened for inhibition of the ERK2 kinase activity at a concentration of 10 μM. The kinase reaction was allowed to proceed at 37° C. for 30 minutes, then reaction was stopped by the addition of 5 μl of 0.5M EDTA (pH 8). 15 μL of each solution were then spotted onto the corresponding square of a filtermat (8×12 glassfibre mat 90×120 mm, PE-Wallac 1450-421). The filtermat was allowed to dry and washed once with 10% TCA, 2% PPA, 500 mM NaCl each for 30 minutes at rt. Two further washings in 10% TCA and 2% PPA for 30 minutes were performed, then a final 30 minute wash in 99% EtOH at rt was done and the filtermat was air dried. The dry filtermat was then placed in a sample bag with a Meltilex sheet (Melt-on scintillator sheets 73×109 mm, PE-Wallac 1450-441 for filtermat A) over the filtermat. The bag was trimmed to fit into the microplate heatsealer (PE-Wallac 1495-021). The heatsealer is used to melt the Meltilex on the filtermat. The bag containing the filtermat and the melted Meltilex was then placed into a filter cassette and counted using the Microbeta Jet Scintillation and Luminescence Counter PE-Wallac 1450.
The PKA kinase activity assay utilizes a radioactivity-based format in a 96-well PCR plate with radioactive readout. The PKA activity was assayed in a 25 μL assay mixture containing 25 mM HEPES (pH 7.0), 250 μM ATP, 10 mM MgCl2, 1 mM DTT, 1 mM EDTA (pH 8). 2% DMSO. 250 ng/mL Histone H2B (Roche 223 514), and 2 ng/mL PKA (catalytic subunit, bovine heart, Calbiochem 539486, specific activity=1170 pmol/min*μg). Compounds were screened for inhibition of the PKA kinase activity at a concentration of 10 μM. The kinase reaction was allowed to proceed at 37° C. for 30 minutes, then the reaction was stopped by addition of 5 μL of 0.5M EDTA (pH 8). The remainder of the protocol is identical to the one reported for ERK2.

[2] = test system: PKC (rat brain); assay: Protein Kinase C inhibition assay (PKC)
Procedure: as §1
The PKC kinase activity assay utilizes a radioactivity-based format in a 96-well PCR plate with radioactive readout. The PKC activity was assayed in a 25 μL assay mixture containing 25 mM HEPES (pH 7.0), 250 μM ATP, 10 mM MgCl2, 1 mM DTT, 1 mM EDTA (pH 8), 2 mM CaCl2, 2% DMSO, 250 ng/mL Histone H1 (Roche 1 004 875), and 165 ng/mL PKC (rat brain, Calbiochem 539494, specific activity=1600 nmol/min*mg). Compounds were screened for inhibition of the PKC kinase activity at a concentration of 10 μM. The kinase reaction was allowed to proceed at 37° C. for 30 minutes, then the reaction was stopped by addition of 5 μL of 0.5M EDTA (pH 8). The remainder of the protocol is identical to the one reported for ERK2.

[3] = biological target: His tagged ERK2 (Homo sapiens, UniProt P28482); assay: Extracellular signal Regulated Kinase 2 inhibition assay (ERK2), radioactive filtermat format
Procedure: as §1

[4] = biological target: T2, GSK3β (Homo sapiens, UniProt P49841); assay: Glycogen Synthase Kinase 3β inhibition assay (GSK3β)
T2 construct: purchased Upstate Discovery
Procedure: The GSK3β kinase activity assay utilizes a radioactivity-based format in a 96-well PCR plate with radioactive readout. The GSK3 β activity was assayed in a 25 μL assay mixture containing 8 mM HEPES (pH 7.0), 250 μM ATP, 0.2 mM EDTA (pH 8), 2% DMSO, 250 ng/mL Myelin Basic Protein (MBP, Sigma M-1891), and 12 ng/mL GSK3β (Upstate Discovery, specific activity=607 nmol/min*GS2 peptide, concentration of 6.05 mg/mL). Compounds were screened for inhibition of the GSK3β kinase activity at a concentration of 10 μM. The kinase reaction was allowed to proceed at 37° C. for 30 minutes, then the reaction was stopped by addition of 5 μL of 0.5M EDTA (pH 8).

Chain of His tagged ERK2 (P28482 whole entry): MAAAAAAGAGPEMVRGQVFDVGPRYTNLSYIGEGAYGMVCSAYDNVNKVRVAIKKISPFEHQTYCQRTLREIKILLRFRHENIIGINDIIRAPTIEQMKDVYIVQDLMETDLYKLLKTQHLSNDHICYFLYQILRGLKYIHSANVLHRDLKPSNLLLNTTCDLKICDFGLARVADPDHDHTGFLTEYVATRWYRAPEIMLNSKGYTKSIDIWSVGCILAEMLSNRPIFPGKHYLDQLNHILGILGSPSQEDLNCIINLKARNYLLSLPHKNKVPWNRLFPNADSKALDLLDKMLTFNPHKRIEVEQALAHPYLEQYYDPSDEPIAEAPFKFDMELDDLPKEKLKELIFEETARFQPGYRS
T2 sequence (P49841 whole entry, species assumed): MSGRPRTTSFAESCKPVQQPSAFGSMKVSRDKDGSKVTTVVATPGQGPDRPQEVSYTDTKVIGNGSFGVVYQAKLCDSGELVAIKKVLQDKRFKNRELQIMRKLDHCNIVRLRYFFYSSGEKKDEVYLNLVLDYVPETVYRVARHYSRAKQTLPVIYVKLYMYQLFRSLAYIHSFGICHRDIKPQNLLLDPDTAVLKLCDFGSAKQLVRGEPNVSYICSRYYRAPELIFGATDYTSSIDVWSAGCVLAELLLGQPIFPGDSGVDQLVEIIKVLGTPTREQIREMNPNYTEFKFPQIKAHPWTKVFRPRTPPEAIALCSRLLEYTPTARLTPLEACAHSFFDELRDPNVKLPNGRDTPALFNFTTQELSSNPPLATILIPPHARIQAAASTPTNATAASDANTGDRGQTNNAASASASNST

| SMILES | inhibition at 10 µM [1] | % Inhibition PKC [2] | inhibition at 10 µM [3] | inhibition at 10 µM [4] | % Inhibition PKA [1] | % Inhibition ERK2 [3] | % Inhibition GSK3β [4] |
| --- | --- | --- | --- | --- | --- | --- | --- |
| O=C(O)c1cn([C@@H]2C3CC([C@H]2O)n2c4ccccc4c4c5c(c6c7ccccc7n3c6c42)C(=O)NC5=O)nn1 (mixture of isomers) [Compound 18] | 11.5% | 21.55% | < 10% | 75.9% | – | – | – |
| NC1(C(=O)NCCO)CC2CC1n1c3ccccc3c3c4c(c5c6ccccc6n2c5c31)C(=O)N(CCO)C4=O (stereo not shown) [Compound 37] | – | 53.92% | – | – | 19.81% | 35.09% | 80.46% |
| CCOC(=O)[C@]1(N)CC2CC1n1c3ccccc3c3c4c(c5c6ccccc6n2c5c31)C(=O)NC4=O (stereo partly shown) [Compound 6] | 59.4% | 83.97% | 61.3% | 94.2% | – | – | – |
| N#C[C@]1(N)CC2CC1n1c3ccccc3c3c4c(c5c6ccccc6n2c5c31)C(=O)NC4=O (mixture of isomers) [Compound 4] | 89.6% | 78.10% | 94.1% | 98.5% | – | – | – |
| COC(=O)[C@]1(N)CC2CC1n1c3ccccc3c3c4c(c5c6ccccc6n2c5c31)C(=O)NC4=O (stereo partly shown) [Compound 8] | 70.8% | 59.42% | 50.2% | 96.9% | – | – | – |
| N[C@@H]1C2CC([C@H]1O)n1c3ccccc3c3c4c(c5c6ccccc6n2c5c31)C(=O)NC4=O (mixture of isomers) [Compound 16] | 84.8% | 93.34% | 98.2% | 98.5% | – | – | – |
| [N-]=[N+]=NC1C2CC([C@H]1O)n1c3ccccc3c3c4c(c5c6ccccc6n2c5c31)C(=O)NC4=O (mixture of isomers) [Compound 15] | 79.8% | 88.68% | 94.6% | 96.9% | – | – | – |
| COc1ccc(CN2C(=O)c3c(c4c5ccccc5n5c4c4c3c3ccccc3n4C3CC(N4CCCCC4)C5C3)C2=O)cc1 (stereo not shown) [Compound 24] | – | 28.18% | – | – | 10.67% | 28.09% | NA (NA = <10% inhibition) |
| CNC1(C#N)CC2CC1n1c3ccccc3c3c4c(c5c6ccccc6n2c5c31)C(=O)N(Cc1ccc(OC)cc1)C4=O (stereo not shown) [Compound 27] | – | 32.18% | – | – | 30.19% | 63.52% | 18.28% |
| COc1ccc(CN2C(=O)c3c(c4c5ccccc5n5c4c4c3c3ccccc3n4C3CC5[C@]4(C3)NC(=O)N(C)C4=O)C2=O)cc1 (mixture of isomers) [Compound 14] | 16.6% | 34.01% | 46.6% | < 10% | – | – | – |
| O=C1NC(=O)c2c1c1c3ccccc3n3c1c1c2c2ccccc2n1C1CC3C[C@@H]1N1CCOCC1 (mixture of isomers) [Compound 3] | 26.1% | 75.80% | 39.9% | 19.3% | – | – | – |
| N[C@@]1(C(=O)O)CC2CC1n1c3ccccc3c3c4c(c5c6ccccc6n2c5c31)C(=O)NC4=O (stereo partly shown) [Compound 7] | 62.5% | 85.71% | 94.7% | 99% | – | – | – |
| CCCCNC1CC2CC1n1c3ccccc3c3c4c(c5c6ccccc6n2c5c31)C(=O)N(Cc1ccc(OC)cc1)C4=O (stereo not shown) [Compound 30] | – | 29.04% | – | – | NA (NA = <10% inhibition) | 44.61% | NA (NA = <10% inhibition) |
| CCOC(=O)[C@]1(N)CC2CC1n1c3ccccc3c3c4c(c5c6ccccc6n2c5c31)C(=O)N(Cc1ccc(OC)cc1)C4=O (stereo partly shown) [Compound 35] | < 10% | 28.47% | 63.8% | < 10% | – | – | – |
| COc1ccc(CN2C(=O)c3c(c4c5ccccc5n5c4c4c3c3ccccc3n4C3CC5[C@@H](N)C3)C2=O)cc1 (mixture of isomers) [Compound 1] | 17.6% | 49.73% | 30.9% | < 10% | – | – | – |
| N[C@@]1(C(=O)NCCO)CC2CC1n1c3ccccc3c3c4c(c5c6ccccc6n2c5c31)C(=O)NC4=O (mixture of isomers) [Compound 11] | 90.5% | 95.94% | 93.6% | 99.2% | – | – | – |
| COc1ccc(CN2C(=O)c3c(c4c5ccccc5n5c4c4c3c3ccccc3n4C3CC(NCCO)C5C3)C2=O)cc1 (stereo not shown) [Compound 25] | – | 15.94% | – | – | NA (NA = <10% inhibition) | 33.51% | NA (NA = <10% inhibition) |
| CCNC(=O)C1(N)CC2CC1n1c3ccccc3c3c4c(c5c6ccccc6n2c5c31)C(=O)NC4=O (stereo not shown) [Compound 41] | – | 83.88% | – | – | 86.43% | 72.93% | 95.80% |
| O=C1NC(=O)c2c1c1c3ccccc3n3c1c1c2c2ccccc2n1C1CC3CC1NCc1ccccc1 (stereo not shown) [Compound 23] | – | 70.41% | – | – | 27.53% | 53.66% | 72.56% |
| CNC(=O)[C@]1(N)CC2CC1n1c3ccccc3c3c4c(c5c6ccccc6n2c5c31)C(=O)NC4=O (mixture of isomers) [Compound 10] | 95.3% | 90.75% | 93.5% | 99.2% | – | – | – |
| O=C1NC(=O)c2c1c1c3ccccc3n3c1c1c2c2ccccc2n1C1CC3CC1N1CCCCC1 (stereo not shown) [Compound 29] | – | 46.63% | – | – | 18.38% | 56.44% | 54.14% |
| COc1ccc(CN2C(=O)c3c(c4c5ccccc5n5c4c4c3c3ccccc3n4C3CC5C(N)(C(=O)O)C3)C2=O)cc1 (stereo not shown) [Compound 36] | – | 65.10% | – | – | 21.80% | 73.44% | 82.71% |
| N#CC1(NC(=O)C(F)(F)F)CC2CC1n1c3ccccc3c3c4c(c5c6ccccc6n2c5c31)C(=O)NC4=O (stereo not shown) [Compound 32] | – | 49.33% | – | – | 23.81% | 44.03% | 72.20% |
| COc1ccc(CN2C(=O)c3c(c4c5ccccc5n5c4c4c3c3ccccc3n4C3CC5[C@]4(C3)NC(=O)NC4=O)C2=O)cc1 (mixture of isomers) [Compound 13] | 13.2% | 13.67% | 24.7% | < 10% | – | – | – |
| CN[C@H]1CC2CC1n1c3ccccc3c3c4c(c5c6ccccc6n2c5c31)C(=O)NC4=O (mixture of isomers) [Compound 2] | 68.4% | 90.78% | 65.3% | 78.2% | – | – | – |
